What was measured:
[1] = tested on: BMAA_159_min (FAM-labeled) (DNA, aptamer) GGCTCGGCCCTGGGTGAGGGGCGCAGTGGGGTGTAGCCAG; assay: BMAA-conjugated plate fluorescence assay; conditions: 100 mM NaCl, 5 mM MgCl2, 20 mM Tris pH 7.6, room temperature, immobilised compound on streptavidin plate
[2] = tested on: BMAA_165_min (FAM-labeled) (DNA, aptamer) GGGCGTGTGTGGGAGGGGGCACTTCGTCGGGGTGAGCCAG; assay: BMAA-conjugated plate fluorescence assay; conditions: 100 mM NaCl, 5 mM MgCl2, 20 mM Tris pH 7.6, room temperature, immobilised compound on streptavidin plate
[3] = tested on: BMAA_165_min (DNA, aptamer) GGGCGTGTGTGGGAGGGGGCACTTCGTCGGGGTGAGCCAG; assay: 1H NMR titration; conditions: 100 mM NaCl, 2 mM MgCl2; 20 mM sodium phosphate, 10% D2O, 298 K; qualitative
[4] = tested on: BMAA_165_scrambled (DNA, aptamer) TGTACCGTCTGAGCGATTCGTACAGTCGTTGGGGGGGGGGGTGAGCGTTGCGCGCGTAGCCAGTCAGTGTTAAGGAGTGC; assay: SYBR Green I fluorescence displacement; conditions: 100 mM NaCl, 5 mM MgCl2; 20 mM Tris pH 7.6, room temperature; SYBR Green I displaced; up to 25 μM BMAA
[5] = tested on: BMAA_172 (DNA, aptamer) TGTACCGTCTGAGCGATTCGTACGGGGGCCAGTGAATGAGTTGGGGTGGTAATGGGGAGCCAGTCAGTGTTAAGGAGTGC; assay: SYBR Green I fluorescence displacement; conditions: 100 mM NaCl, 5 mM MgCl2, 20 mM Tris pH 7.6, room temperature, four of five candidates bind, not named
[6] = tested on: BMAA_165_min (biosensing) (DNA, aptamer) GGGCGTGTGTGGGAGGGGGCACTTCGTCGGGGTG; assay: electrochemical aptamer sensor (SWV, EIS); conditions: 4 mM NaCl, 0.2 mM MgCl2
[7] = tested on: BMAA_159_min (DNA, aptamer) GGCTCGGCCCTGGGTGAGGGGCGCAGTGGGGTGTAGCCAG; assay: 1H NMR titration; conditions: 100 mM NaCl, 2 mM MgCl2; 20 mM sodium phosphate, 10% D2O, 298 K; qualitative
[8] = tested on: BMAA_159 (DNA, aptamer) TGTACCGTCTGAGCGATTCGTACGGCTCGGCCCTGGGTGAGGGGCGCAGTGGGGTGTAGCCAGTCAGTGTTAAGGAGTGC; assay: SYBR Green I fluorescence displacement; conditions: 100 mM NaCl, 5 mM MgCl2; 20 mM Tris pH 7.6, room temperature; SYBR Green I displaced; one-site fit
[9] = tested on: BMAA_159_min (DNA, aptamer) GGCTCGGCCCTGGGTGAGGGGCGCAGTGGGGTGTAGCCAG; assay: circular dichroism; conditions: 100 mM NaCl (100 mM KCl in legend), 5 mM MgCl2; 20 mM Tris pH 7.6, room temperature; qualitative
[10] = tested on: BMAA_165 (DNA, aptamer) TGTACCGTCTGAGCGATTCGTACGGGCGTGTGTGGGAGGGGGCACTTCGTCGGGGTGAGCCAGTCAGTGTTAAGGAGTGC; assay: SYBR Green I fluorescence displacement; conditions: 100 mM NaCl, 5 mM MgCl2; 20 mM Tris pH 7.6, room temperature; SYBR Green I displaced; one-site fit
[11] = tested on: BMAA_38 (DNA, aptamer) TGTACCGTCTGAGCGATTCGTACGGGGGTTCACGCTCGAGGGGGCCACAGGGGGAGTAGCCAGTCAGTGTTAAGGAGTGC; assay: SYBR Green I fluorescence displacement; conditions: 100 mM NaCl, 5 mM MgCl2, 20 mM Tris pH 7.6, room temperature, four of five candidates bind, not named

Row | Compound | apparent Kd [1] [µM] | apparent Kd [2] [µM] | binding [3] | binding [4] | apparent Kd [5] | binding [6] | binding [7] | Kd [8] [µM] | binding [9] | Kd [10] [µM] | apparent Kd [11]
1 | CNCC(NC(=O)CCOCCOCCOCCOCCNC(=O)CCCC[C@@H]1SC[C@@H]2NC(=O)N[C@@H]21)C(=O)O (some centres unmarked) | 6 ± 1 | 0.63 ± 0.02 | – | – | – | – | – | – | – | – | –
2 | CNC[C@H](N)C(=O)O | – | – | yes | no | 6.50 (5.23-9.56) uM | yes | yes | 2.2 ± 0.1 | yes | 0.32 ± 0.02 | 18.6 (3.08-102) uM
